Assay results taken from the supplement of paper PMC10307832.

Tests used:
Assay in all cases: relative viability (nuclei count vs DMSO), 5 days (fraction); higher = more cells survive
SW 900 = test system: SW 900
Method in brief: (§1)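 Cells from lung cancer lines were seeded into 1536-well plates and, one day later, dosed by pin tool. Treatments were either a single drug or a fixed dose of an anchor drug with five library-drug doses (not always all listed) in √10 steps. After 5 days, nuclei were stained in a one-step fixation (final 0.05% Triton X-100, 1% formaldehyde, 1 ug/ml Hoechst) and counted on 4× images, and relative viability is the treated-to-vehicle nuclei ratio, as the median of duplicate plates.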

H3255 = test system: H3255
Method in brief: as §1

NCI-H1563 = test system: NCI-H1563
Method in brief: as §1

NCI-H1650 = test system: NCI-H1650
Method in brief: as §1

LOU-NH91 = test system: LOU-NH91
Method in brief: as §1

NCI-H2023 = test system: NCI-H2023
Method in brief: as §1

EPLC-272H = test system: EPLC-272H
Method in brief: as §1

NCI-H1734 = test system: NCI-H1734
Method in brief: as §1

201T = test system: 201T
Method in brief: as §1

NCI-H2085 = test system: NCI-H2085
Method in brief: as §1

RERF-LC-KJ = test system: RERF-LC-KJ
Method in brief: as §1

COR-L23 = test system: COR-L23
Method in brief: as §1

NCI-H2170 = test system: NCI-H2170
Method in brief: as §1

NCI-H647 = test system: NCI-H647
Method in brief: as §1

NCI-H1993 = test system: NCI-H1993
Method in brief: as §1

NCI-H3122 = test system: NCI-H3122
Method in brief: as §1

NCI-H441 = test system: NCI-H441
Method in brief: as §1

NCI-H1793 = test system: NCI-H1793
Method in brief: as §1

HCC-44 = test system: HCC-44
Method in brief: as §1

PC-14 = test system: PC-14
Method in brief: as §1

NCI-H520 = test system: NCI-H520
Method in brief: as §1

NCI-H2405 = test system: NCI-H2405
Method in brief: as §1

NCI-H2347 = test system: NCI-H2347
Method in brief: as §1

O=C(O)c1ccc(-c2c[nH]c3ncc(-c4ccccc4)cc23)cc1C1CCCC1 + Nc1nc2[nH]cc(CCc3ccc(C(=O)N[C@@H](CCC(=O)O)C(=O)O)cc3)c2c(=O)[nH]1 [Pemetrexed] (partner 0.2 µM)
relative viability (SW 900; first compound 0.04 µM): 0.476 | relative viability (SW 900; first compound 0.1265 µM): 0.471 | relative viability (SW 900; first compound 0.4 µM): 0.451 | relative viability (SW 900; first compound 1.265 µM): 0.473 | relative viability (H3255; first compound 0.04 µM): 0.485 | relative viability (H3255; first compound 0.1265 µM): 0.58 | relative viability (H3255; first compound 0.4 µM): 0.622 | relative viability (H3255; first compound 1.265 µM): 0.582 | relative viability (NCI-H1563; first compound 0.04 µM): 0.698 | relative viability (NCI-H1563; first compound 0.1265 µM): 0.948 | relative viability (NCI-H1563; first compound 0.4 µM): 0.789 | relative viability (NCI-H1563; first compound 1.265 µM): 0.892 | relative viability (NCI-H1650; first compound 0.04 µM): 0.352 | relative viability (NCI-H1650; first compound 0.1265 µM): 0.466 | relative viability (NCI-H1650; first compound 0.4 µM): 0.383 | relative viability (NCI-H1650; first compound 1.265 µM): 0.33 | relative viability (LOU-NH91; first compound 0.04 µM): 0.419 | relative viability (LOU-NH91; first compound 0.1265 µM): 0.404 | relative viability (LOU-NH91; first compound 0.4 µM): 0.414 | relative viability (LOU-NH91; first compound 1.265 µM): 0.435 | relative viability (NCI-H2023; first compound 0.04 µM): 0.23 | relative viability (NCI-H2023; first compound 0.1265 µM): 0.271 | relative viability (NCI-H2023; first compound 0.4 µM): 0.28 | relative viability (NCI-H2023; first compound 1.265 µM): 0.237 | relative viability (EPLC-272H; first compound 0.04 µM): 0.369 | relative viability (EPLC-272H; first compound 0.1265 µM): 0.336 | relative viability (EPLC-272H; first compound 0.4 µM): 0.279 | relative viability (EPLC-272H; first compound 1.265 µM): 0.251 | relative viability (NCI-H1734; first compound 0.04 µM): 0.413 | relative viability (NCI-H1734; first compound 0.1265 µM): 0.43 | relative viability (NCI-H1734; first compound 0.4 µM): 0.428 | relative viability (NCI-H1734; first compound 1.265 µM): 0.411 | relative viability (201T; first compound 0.04 µM): 0.342 | relative viability (201T; first compound 0.1265 µM): 0.326 | relative viability (201T; first compound 0.4 µM): 0.357 | relative viability (201T; first compound 1.265 µM): 0.343 | relative viability (NCI-H2085; first compound 0.04 µM): 0.821 | relative viability (NCI-H2085; first compound 0.1265 µM): 0.951 | relative viability (NCI-H2085; first compound 0.4 µM): 0.882 | relative viability (NCI-H2085; first compound 1.265 µM): 0.654 | relative viability (RERF-LC-KJ; first compound 0.04 µM): 0.466 | relative viability (RERF-LC-KJ; first compound 0.1265 µM): 0.469 | relative viability (RERF-LC-KJ; first compound 0.4 µM): 0.481 | relative viability (RERF-LC-KJ; first compound 1.265 µM): 0.481 | relative viability (COR-L23; first compound 0.04 µM): 0.191 | relative viability (COR-L23; first compound 0.1265 µM): 0.196 | relative viability (COR-L23; first compound 0.4 µM): 0.194 | relative viability (COR-L23; first compound 1.265 µM): 0.184 | relative viability (NCI-H2170; first compound 0.04 µM): 0.265 | relative viability (NCI-H2170; first compound 0.1265 µM): 0.263 | relative viability (NCI-H2170; first compound 0.4 µM): 0.247 | relative viability (NCI-H2170; first compound 1.265 µM): 0.282 | relative viability (NCI-H647; first compound 0.04 µM): 0.165 | relative viability (NCI-H647; first compound 0.1265 µM): 0.171 | relative viability (NCI-H647; first compound 0.4 µM): 0.182 | relative viability (NCI-H647; first compound 1.265 µM): 0.148 | relative viability (NCI-H1993; first compound 0.04 µM): 0.603 | relative viability (NCI-H1993; first compound 0.1265 µM): 0.622 | relative viability (NCI-H1993; first compound 0.4 µM): 0.617 | relative viability (NCI-H1993; first compound 1.265 µM): 0.59 | relative viability (NCI-H3122; first compound 0.04 µM): 0.204 | relative viability (NCI-H3122; first compound 0.1265 µM): 0.202 | relative viability (NCI-H3122; first compound 0.4 µM): 0.217 | relative viability (NCI-H3122; first compound 1.265 µM): 0.21 | relative viability (NCI-H441; first compound 0.04 µM): 0.33 | relative viability (NCI-H441; first compound 0.1265 µM): 0.285 | relative viability (NCI-H441; first compound 0.4 µM): 0.256 | relative viability (NCI-H441; first compound 1.265 µM): 0.235 | relative viability (NCI-H1793; first compound 0.04 µM): 0.83 | relative viability (NCI-H1793; first compound 0.1265 µM): 1.19 | relative viability (NCI-H1793; first compound 0.4 µM): 0.865 | relative viability (NCI-H1793; first compound 1.265 µM): 0.882 | relative viability (HCC-44; first compound 0.04 µM): 0.654 | relative viability (HCC-44; first compound 0.1265 µM): 0.578 | relative viability (HCC-44; first compound 0.4 µM): 0.68 | relative viability (HCC-44; first compound 1.265 µM): 0.598 | relative viability (PC-14; first compound 0.04 µM): 0.135 | relative viability (PC-14; first compound 0.1265 µM): 0.143 | relative viability (PC-14; first compound 0.4 µM): 0.145 | relative viability (PC-14; first compound 1.265 µM): 0.125 | relative viability (NCI-H520; first compound 0.04 µM): 0.789 | relative viability (NCI-H520; first compound 0.1265 µM): 0.633 | relative viability (NCI-H520; first compound 0.4 µM): 0.655 | relative viability (NCI-H520; first compound 1.265 µM): 0.474 | relative viability (NCI-H2405; first compound 0.04 µM): 1.05 | relative viability (NCI-H2405; first compound 0.1265 µM): 1.15 | relative viability (NCI-H2405; first compound 0.4 µM): 0.959 | relative viability (NCI-H2405; first compound 1.265 µM): 0.648 | relative viability (NCI-H2347; first compound 0.04 µM): 0.435 | relative viability (NCI-H2347; first compound 0.1265 µM): 0.453 | relative viability (NCI-H2347; first compound 0.4 µM): 0.454 | relative viability (NCI-H2347; first compound 1.265 µM): 0.398
